Laboratory results as given in patent US20080031866A1, “METHOD FOR MODULATING THE PHARMACOKINETICS AND METABOLISM OF A THERAPEUTIC AGENT” (priority 2006, published 2008).

Key:
[1] = IV pharmacokinetics of Compound 1 and its glucuronides in rats; assay type: in vivo, rat
Procedure: (§1) Two separate IV studies were carried out using two separate lots of animals. IV-A was run on the same lot of animals as the oral gavage study and IV-B was run on the same lot of animals as the intraduodenal and intra-colonic studies.
For the IV dosing solutions (IV), Compound 1 was prepared by addition to DI water containing 20% hydroxypropyl β-cyclodextran by weight.
(§2) For the IV and oral gavage dosing (sampling at jugular and portal vein), young adult male Sprague Dawley rats weighing 250-400 g were purchased from Hilltop Lab Animals Inc. All rat experiments were conducted under approved animal protocols. The rats for the oral gavage dosing were catheterized at Hilltop Lab Animals Inc, had two chronic catheters for sampling: jugular and portal, were housed in cages of Culex™ Automated Blood Sampler (ABS) and blood samples were collected simultaneously via both cannula and were controlled by the Culex™ ABS control software.
(§3) A quantitative method for determining the amount of (6,7-dimethoxy-2,4-dihydro-indeno[1,2-c]pyrazol-3-yl)-(3-fluoro-phenyl)-amine Compound 1 and its major metabolites, glucuronide A (Cpd 1-GluA) and glucuronide B (Cpd 1-GluB) (see Scheme A) in rat plasma was developed using phenacetin as an internal standard. [drawing 1]
(§4) The two glucuronide conjugates were prepared and purified to permit accurate quantification of the levels of intact parent Compound 1 versus Cpd 1-GluA and Cpd 1-GluB. Each standard curve for Compound 1, Cpd 1-GluA, and Cpd 1-GluB generated from rat plasma included ten concentration levels. […] The quantitative procedure for each sample included: sample preparation, HPLC separation and mass spectrometry detection.
(§5) The rat plasma was prepared using protein precipitation techniques. Reference standards and quality control samples in rat plasma for Compound 1 were transferred to a 96 deep-well plate. The precipitation solution contained 100 ng/ml of internal standard in acetonitrile. 300 μl of precipitation solution were added to 100 μl of each standard, quality control and plasma sample. Samples were vortexed for 10 mins, then centrifuged at 4500 RPM for 10 mins. 10 μl of each sample were injected for LC/MS/MS analysis.
(§6) The HPLC column chosen for the bioanalysis was purchased from Thermo Electron (Hypersil BetaBasic C18, 5 cm×2.1 mm). The eluting solvents were composed of Solvent A: 0.1% formic acid in H2O and Solvent B: 0.1% formic acid in acetonitrile. A step gradient was used and flow rate was 300 μl/min. The total run time was 3.2 mins. Solvent B was increased from 35% at 0 min to 75% at 2.1 mins and decreased back to 35% at 2.2 mins. The retention times for Compound 1, phenacetin, Cpd 1-GluA and Cpd 1-GluB were 1.1 min, 0.9 min, 1.3 min, and 1.6 min, respectively.
(§7) API3000 with a Turbo Ionspray interface from Applied Biosystems was used for the detection of Compound 1, the internal standard and major metabolites. Electrospray ionization was performed in the positive ion mode heated nebulizer with a temperature of 300° C. LC/MS/MS chromatograms were acquired in MRM (multiple reaction mode). The MRM transitions for Compound 1, the internal standard, Cpd 1-GluA and Cpd 1-GluB were from 326.3 to 190.6, 181.1 to 110.3, 502.2 to 368.3 and 502.2 to 326.4, respectively.
Pharmacokinetic analysis of the plasma concentration data was performed to determine the maximum plasma concentration (Cmax) for the oral dose, and the concentration at zero time (C0; Compound 1 only) by the extrapolation of drug concentrations back to the time of i.v. dosing, the time to maximum plasma concentration (Tmax) following the oral dose, area under the plasma concentration vs. time curve (AUC), terminal half-life (t1/2), plasma clearance (CL/F; Compound 1 only), and volume of distribution at steady state (Vdss; Compound 1 only) for the i.v. dose, using the WinNonlin (Version 3.1, Pharsight, Palo Alto, Calif.) validated computer program.

[2] = Oral gavage pharmacokinetics, jugular and portal vein sampling, first pass metabolism; assay type: in vivo, rat; conditions: for AUC: po, 75 mg/kg; for AUC / concentration at 0 h / concentration at 0.08 h / concentration at 0.25 h / concentration at 0.33 h / concentration at 0.5 h / concentration at 0.67 h / concentration at 1 h / concentration at 1.25 h / concentration at 1.5 h / concentration at 2 h / concentration at 3 h / concentration at 4 h / concentration at 6 h / concentration at 12 h / concentration at 24 h / Cmax: rats N=4; for Cmax: read-out: Cmax average ± standard deviation
Procedure: as §1
For the oral gavage dosing, Compound 1 was prepared in neat PEG-400. For the intraduodenal and intracolonic dosing solutions, Compound 1 was added to neat Tween 80, the mixture was sonicated for thirty minutes at 45° C. until Compound 1 was completely dissolved and then deionized (DI) water was added to form a solution consisting of 20% Tween 80 and 80% DI water by weight.
as §2, §3, §4, §5, §6
as §7, with “respectively. […]” for “respectively.”

[3] = male, Sprague Dawley, rat, plasma (jugular vein sample), Compound 1 75 mg/kg oral gavage, jugular sample
[4] = male, Sprague Dawley, rat, plasma (portal vein sample), Compound 1 75 mg/kg oral gavage, portal sample
[5] = male, Sprague Dawley, rat, portal vein plasma, Compound 1 75 mg/kg oral gavage, portal sample

For `COc1cc2c(cc1OC)-c1n[nH]c(Nc3cccc(F)c3)c1C2` [Compound 1, (6,7-dimethoxy-2,4-dihydro-indeno[1,2-c]pyrazol-3-yl)-(3-fluoro-phenyl)-amine], the “Plasma level of Compound 1 relative to level of the metabolites” value ([1]; IV administration) was 2%, the AUC ([1]; Sprague Dawley, rat, plasma, male rats N=4, Compound 1 2 mg/kg IV, read-out: AUC average ± standard deviation) was 345 ± 42 ng·h/mL and the C0 ([1]; Sprague Dawley, rat, plasma, male rats N=4, Compound 1 2 mg/kg IV, read-out: C0 (concentration at zero time, by extrapolation)) was 783 ng/mL. For the same molecule, the Cmax ([1]; Sprague Dawley, rat, plasma, male rats N=4, Compound 1 2 mg/kg IV, read-out: Cmax average ± standard deviation) was 783 ± 233 ng/mL, the concentration at 0.08 h ([1]; Sprague Dawley, rat, plasma, male rats N=4, Compound 1 2 mg/kg IV, retro orbital sinus, 0.08 hrs) was 610 ng/mL and the concentration at 0.33 h ([1]; Sprague Dawley, rat, plasma, male rats N=4, Compound 1 2 mg/kg IV, retro orbital sinus, 0.33 hrs) was 286 ng/mL. The concentration at 1 h ([1]; Sprague Dawley, rat, plasma, male rats N=4, Compound 1 2 mg/kg IV, retro orbital sinus, 1 hr) was 71.3 ng/mL, the concentration at 2 h ([1]; Sprague Dawley, rat, plasma, male rats N=4, Compound 1 2 mg/kg IV, retro orbital sinus, 2 hrs) was 16.3 ng/mL and the concentration at 4 h ([1]; Sprague Dawley, rat, plasma, male rats N=4, Compound 1 2 mg/kg IV, retro orbital sinus, 4 hrs) was 1.2 ng/mL. The concentration at 8 h ([1]; Sprague Dawley, rat, plasma, male rats N=4, Compound 1 2 mg/kg IV, retro orbital sinus, 8 hrs) was 0 ng/mL, the concentration at 24 h ([1]; Sprague Dawley, rat, plasma, male rats N=4, Compound 1 2 mg/kg IV, retro orbital sinus, 24 hrs) was 0 ng/mL and the “Local absorption ratio (Fa)” value ([2]; Compound 1 75 mg/kg oral, Equation (2)) was 48±18%. The “Hepatic recovery ratio (Fh)” value ([2]; Equation (3)) was 40%, the “Extent of first pass metabolism” value ([2]; gut) was 52% and the “Extent of first pass metabolism” value ([2]; liver) was 60%. It also gave an AUC ([2]; male, Sprague Dawley, rat, plasma (jugular vein sample), Compound 1 75 mg/kg oral gavage, jugular sample, read-out: AUC average ± standard deviation 0 to 24 hours) of 2340 ng·h/mL, an AUC ([2]; male, Sprague Dawley, rat, plasma (jugular vein sample), Compound 1 75 mg/kg oral gavage, jugular sample, read-out: AUC average ± standard deviation 0 to infinite hours) of 2410 ng·h/mL and a concentration at 0 h [2, 3] of 6.7 ng/mL. For the same molecule, the concentration at 0.08 h [2, 3] was 447 ng/mL, the concentration at 0.25 h [2, 3] was 2120 ng/mL and the concentration at 0.33 h [2, 3] was 1770 ng/mL. For the same molecule, the concentration at 0.5 h [2, 3] was 1220 ng/mL, the concentration at 0.67 h [2, 3] was 626 ng/mL and the concentration at 1 h [2, 3] was 442 ng/mL. It also gave a concentration at 1.25 h [2, 3] of 465 ng/mL, a concentration at 1.5 h [2, 3] of 409 ng/mL and a concentration at 2 h [2, 3] of 378 ng/mL. For the same molecule, the concentration at 3 h [2, 3] was 127 ng/mL, the concentration at 4 h [2, 3] was 61.3 ng/mL and the concentration at 6 h [2, 3] was 51.1 ng/mL. The concentration at 12 h [2, 3] was 22.8 ng/mL, the concentration at 24 h [2, 3] was 7.7 ng/mL and the Cmax [2, 3] was 2120 ng/mL. For the same molecule, the concentration at 0.67 h [2, 4] was 2300 ng/mL, the concentration at 1 h [2, 4] was 346 ng/mL and the concentration at 1.25 h [2, 4] was 972 ng/mL. The concentration at 1.5 h [2, 4] was 465 ng/mL, the concentration at 2 h [2, 4] was 1880 ng/mL and the concentration at 3 h [2, 4] was 336 ng/mL. For the same molecule, the concentration at 4 h [2, 4] was 398 ng/mL, the concentration at 6 h [2, 4] was 1010 ng/mL and the concentration at 12 h [2, 4] was 250 ng/mL. For the same molecule, the bioavailability ([2]; male, Sprague Dawley, rat, plasma, Compound 1 75 mg/kg oral, read-out: Systemic oral bioavailability) was 19 ± 5%, the Tmax ([2]; male, Sprague Dawley, rat, plasma, rats, Compound 1 75 mg/kg oral gavage) was 15 min and the AUC ([2]; male, Sprague Dawley, rat, portal vein plasma, Compound 1 75 mg/kg oral gavage, portal sample, read-out: AUC average ± standard deviation 0 to 24 hours) was 11900 ng·h/mL. It also gave an AUC ([2]; male, Sprague Dawley, rat, portal vein plasma, Compound 1 75 mg/kg oral gavage, portal sample, read-out: AUC average ± standard deviation 0 to infinite hours) of 12500 ng·h/mL, a concentration at 0 h [2, 5] of 2.4 ng/mL and a concentration at 0.08 h [2, 5] of 7520 ng/mL. For the same molecule, the concentration at 0.25 h [2, 5] was 4250 ng/mL, the concentration at 0.33 h [2, 5] was 3880 ng/mL and the concentration at 0.5 h [2, 5] was 873 ng/mL. For the same molecule, the concentration at 24 h [2, 5] was 224 ng/mL, the Cmax [2, 5] was 8690 ng/mL and the “Plasma level of Compound 1 relative to level of the metabolites” value ([2]; oral administration) was 6%.
